Test results published in US20220016241A1, “COMPOSITIONS AND METHODS FOR REDUCING ANTIGEN-SPECIFIC IMMUNOGENICITY” (The Research Foundation for The State University of New York, priority 2013, published 2022).

Assays:
anti-GAA total titers = assay: OPLS-GAA sequential administration study; type: in vivo, Mice
Description: This examples describes OPLS-GAA sequential administration study. To determine if OPLS can exert its immunomodulatory effects on the immune response to GAA when the two are administered in separate spaced injections, at the same injection site the following experiments were carried out. Mice (n=6 animals/group) were immunized with 4 weekly sc injections as follows. One group of animals received one single combined injection of 5 mg OPLS and 1 μg rhGAA(100 μl volume). Recombinant human GAA was produced by Creative Biomart. The second group received one injection of 5 mg OPLS (100 μl volume) then after a 5 minute wait they received a second injection of 1 μg rhGAA in sterile TRIS (100 μl volume) in the same injection site. The final control group received one injection of sterile TRIS (100 μl volume) then after a 5 minute wait they received a second injection of 1 μg rhGAA in sterile TRIS (100 μl volume) in the same injection site. After a two week rest period a saphenous blood sample was collected. All of the mice were then rechallenged with 4 weekly injections of 1 μg of rhGAA in 100 μl sterile TRIS (one single injection). Analysis was done by ELISA for total titers. The mean free GAA after 6 weeks was 3135±910, When co-administered, the GAA was 787±155, and when administered separately (sequentially), the GAA was 926±202 (FIG. 26). After re-challenge, terminal sampling was done at week 11. The mean free GAA after 11 weeks was 8775±2363, When co-administered, the GAA was 895±335, and when administered separately (sequentially), the GAA was 1884±761. […] Either administration method was able to induce a hypo-responsiveness towards GAA.

anti-GAA antibody titers = assay: Effect of OPLS on immunogenicity of GAA protein; type: in vivo, mice; conditions: 5 mg dose with 1 μg GAA, 4 weekly s.c., 2 week rest
Description: Materials and Methods: GAA Source: Full length recombinant rhGAA was produced in Human Kidney Embryo Cells for our use by Creative Biomart (Shirley, N.Y.); OPLS Source: Sigma-Aldrich (St. Louis, Mo.). n=8 animals/group were immunized with 4 weekly s.c. injections of 1 μg of GAA in 100 μl of either sterile TRIS for the free group or in 5 mg OPLS in sterile TRIS for the OPLS-GAA group. A group of 8 mice will receive the same dose of CBrhGAA in 5 mg O-phospho-D-serine (OPDS) solution as a negative control. After a 2 week rest period, a blood sample from the saphenous vein will be collected. Samples were stored at −80° C. until analysis. These samples were then analyzed for anti-GAA Ab titers. Anti-GAA antibody titers were measured as follows: ELISA plate (maxisorp, NUNC) was coated with 50 μl of 5 μg/ml of sterile rhGAA in sodium carbonate-bicarbonate buffer pH =9.6. The plate was incubated overnight at 4° C. The plate was washed six times with PBS containing 0.05% Tween 20 (PBS-T, 250 μl/well) using an automated plate washer. The plate was blocked with PBS containing 1% BSA (300 μl/well) as the block buffer for 2 hr at 37° C. […] The reaction was stopped with 2 N sulfuric acid and read immediately at 450 nm using a micro-plate reader. The titer values are quantitated using a statistical endpoint method as described by Frey et al. Control plasma samples were run on each plate. […]

[1] = tested on: anti-FVIII antibody titers; assay: FVIII-specific tolerance with OPLS, OPDS or Dex, rechallenge with free FVIII (FIG. 11); conditions: s.c. co-administration with FVIII, then s.c. free FVIII
[2] = Rituximab pharmacokinetics after iv and sc administration in isotonic and hypertonic buffers; type: in vivo, SW mice
Description: Preparation and characterization of injection buffers: One isotonic and six different hypertonic TRIS buffers were prepared to investigate the effects of hypertonicity and buffer composition on rituximab lymphatic uptake and plasma exposure (Table 1.).
Isotonic TRIS buffer was prepared using 25 mM TRIS and 150 mM NaCl (Buffer A). Hypertonic (600 mmol/kg) TRIS buffers were prepared with 25 mM of TRIS containing 300 mM NaCl (Buffer B). Buffers “C” and “E” contained NaCl as well as 20 mM of OPLS or Mannitol. To further delineate the effects of buffer composition on lymphatic uptake, we prepared two buffers at 600 mmol/kg with a 270 mM of OPLS (Buffer D) or mannitol (Buffer F). […] Osmolarity was measured using a 5500 Vapor Pressure Osmometer (Wescore Inc. Logen, Utah, USA) according to manufacturer's instruction.
Rituximab pharmacokinetics studies: 126 male SW mice were divided into 7 groups. […] The disposition of RXT will be determined from the iv PK profile and convoluted with the absorption data generated from the sc studies. […] Immediately before analysis; the inguinal lymph nodes were homogenized in 300 μl of PBS on ice and then analyzed.
Analysis of RXT in plasma and lymph node samples: Analysis of plasma and lymph node samples from PK studies was done with a standard ELISA. […] Optical density at 450 nm was measured using a plate reader.

## free GAA: Full length recombinant rhGAA produced in Human Kidney Embryo Cells by Creative Biomart
anti-GAA total titers; control group, rechallenge 4 weekly 1 μg rhGAA
  Total titers (ELISA), week 11 after re-challenge: 8775±2363
anti-GAA total titers; control: TRIS then 1 μg rhGAA 5 min later, same site, 4 weekly sc
  Total titers (ELISA), week 6: 3135±910

## N[C@H](COP(=O)(O)O)C(=O)O [OPDS, O-Phospho-D-Serine, reference compound]
anti-GAA antibody titers
  Anti-GAA antibody titers vs GAA alone: lower
[1]
  FVIII-specific hypo-responsiveness upon rechallenge: did not

## rituximab: Commercial preparation of rituximab (RXT)
[2]; 1 μg/g in isotonic Buffer A
  sc bioavailability of rituximab: 0.29
[2]; 1 μg/g sc in isotonic Buffer A, estimated
  Fraction of the dose taken up by the lymph nodes: 0.05
